Results from ChEMBL document CHEMBL4043239, “Discovery and optimization of oxadiazole-based FLAP inhibitors” (Bioorg Med Chem Lett, 2017).
Converted amounts (≈) assume the structure as drawn.

Tests used:
[1] = Aqueous kinetic solubility of the compound at pH 7.4; format: physicochemical; conditions: for solubility kinetic: aqueous, read-out: Kinetic_solubility; for Kinetic_solubility: buffer
[2] = target: T1, Arachidonate 5-lipoxygenase-activating protein (Homo sapiens, UniProt P20292); assay: Inhibition of FLAP in calcimycin-stimulated human whole blood assessed as reduction in LTB4 production pretreated for 15 mins followed by calcimycin addition after 30 mins by ELISA
T1 sequence (P20292 whole entry): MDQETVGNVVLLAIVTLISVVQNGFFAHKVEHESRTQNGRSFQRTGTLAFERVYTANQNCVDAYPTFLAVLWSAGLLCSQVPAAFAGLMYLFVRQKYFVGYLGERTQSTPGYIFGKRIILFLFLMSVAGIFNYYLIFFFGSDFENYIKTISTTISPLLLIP

[3] = target: T1, Arachidonate 5-lipoxygenase-activating protein; assay: Displacement of [125I]-L-691831 from human FLAP expressed in Sf9 cell membranes after 2 hrs by Topcount method
[4] = Stability in human liver microsomes at 1 uM pretreated for 10 mins followed by NADPH addition after 60 mins by LC/MS analysis relative to hepatic blood flow; format: ADME, microsome; conditions: read-out: Stability
[5] = Aqueous equilibrium solubility in citric acid/disodium phosphate buffer at pH 6.8 at 1 uM after 24 hrs by HPLC method; format: physicochemical; conditions: for solubility: buffer, pH 6.8, 24 h, 1 µM; for solubility thermodynamic at 24 h, 1 µM: citric acid/disodium phosphate buffer, pH 6.8

For `CN(C(=O)Cn1cc(-c2nc(C3(c4ccc(-c5cnc(N)nc5)cc4)CCC3)no2)cn1)C(C)(C)C`, which solubility kinetic [1] is on record?
The solubility kinetic was 2 µg/mL (≈ 4.11 µM).

Which IC50 [2] does the source give for `CC(C)(C#N)n1cc(-c2nc(C3(c4ccc(-c5cnc(N)nc5)nc4)CCC3)no2)cn1` here?
Its IC50 is 94 nM.

What about the solubility kinetic [1] of the same compound?
The solubility kinetic was 2 µg/mL (≈ 4.68 µM).

Which results are given for `CC(C)(CO)n1cc(-c2nc(C3(c4ccc(-c5cnc(N)nc5)cc4)CCC3)no2)cn1`?
IC50 [2]: 155 nM; solubility kinetic [1]: > 43 µg/mL

With `CC(C)(O)Cn1cc(-c2nc(C3(c4ccc(-c5cnc(N)nc5)cc4)CCC3)no2)cn1` as the compound, how does the solubility kinetic [1] read?
Its solubility kinetic is over 43 µg/mL.

With `COCCn1cc(-c2nc(C3(c4ccc(-c5cnc(N)nc5)nc4)CCC3)no2)cn1` as the compound, how does the IC50 [2] read?
The IC50 was 213 nM.

And the solubility kinetic [1]?
The solubility kinetic was over 41 µg/mL.

Which IC50 [2] does the source give for `Nc1ncc(-c2ccc(C3(c4noc(N5CCCC5)n4)CCC3)cn2)cn1` here?
The IC50 was 917 nM.

With `COCCn1cc(-c2nc(C3(c4ccc(-c5cnc(N)nc5)cc4)CCC3)no2)cn1` as the compound, how does the solubility kinetic [1] read?
The solubility kinetic was over 41 µg/mL.

For `C[C@@](c1ccc(-c2cnc(N)nc2)nc1)(c1noc(-c2cnn(CC#N)c2)n1)C1CC1`, which IC50 [3] is on record?
The IC50 was 8.1 nM.

And the IC50 [2]?
The IC50 was 19 nM.

What about the Kinetic_solubility [1] of the same compound?
The Kinetic_solubility was “Soluble”.

What about the hepatic extraction ratio at 1 h, 1 µM [4] of the same compound?
The hepatic extraction ratio at 1 h, 1 µM was 0.57.

And the solubility [5]?
Its solubility is “Soluble”.

Which results are given for `CC(C)(CO)n1cc(-c2nc(C3(c4ccc(-c5cnc(N)nc5)nc4)CCC3)no2)cn1`?
IC50 [2]: 403 nM; solubility kinetic [1]: > 43 µg/mL

Which IC50 [2] does the source give for `Cn1cc(-c2nc(C3(c4ccc(-c5cnc(N)nc5)cn4)CCC3)no2)cn1` here?
Its IC50 is 787 nM.

What about the solubility kinetic [1] of the same compound?
Its solubility kinetic is over 37 µg/mL.

With `N#CCCn1cc(-c2nc(C3(c4ccc(-c5cnc(N)nc5)cc4)CCC3)no2)cn1` as the compound, how does the IC50 [3] read?
Its IC50 is 1 nM.

And the IC50 [2]?
The IC50 was 37 nM.

And the solubility kinetic [1]?
The solubility kinetic was 17 µg/mL (≈ 41.2 µM).

For `N#CCCn1cc(-c2nc(C3(c4ccc(-c5cnc(N)nc5)nc4)CCC3)no2)cn1`, which IC50 [3] is on record?
The IC50 was 11 nM.

What about the IC50 [2] of the same compound?
The IC50 was 85 nM.

And the solubility kinetic [1]?
The solubility kinetic was over 40 µg/mL.

What about the solubility thermodynamic at 24 h, 1 µM [5] of the same compound?
The solubility thermodynamic at 24 h, 1 µM was 9 µg/mL (≈ 21.8 µM).

Which IC50 [2] does the source give for `Cc1cc(-c2nc(C3(c4ccc(-c5cnc(N)nc5)cn4)CCC3)no2)[nH]n1` here?
Its IC50 is 342 nM.

What about the solubility kinetic [1] of the same compound?
Its solubility kinetic is over 37 µg/mL.

With `CN(C)c1nc(C2(c3ccc(-c4cnc(N)nc4)nc3)CCC2)no1` as the compound, how does the IC50 [2] read?
Its IC50 is 2600 nM.

Which solubility kinetic [1] does the source give for `Nc1ncc(-c2ccc(C3(c4noc(N)n4)CCC3)cc2)cn1` here?
The solubility kinetic was 22 µg/mL (≈ 71.3 µM).

For `CN(C)c1nc(C2(c3ccc(-c4cnc(N)nc4)cc3)CCC2)no1`, which solubility kinetic [1] is on record?
Its solubility kinetic is 1.9 µg/mL (≈ 5.65 µM).

With `CC(C)[C@](C)(c1ccc(-c2cnc(N)nc2)nc1)c1noc(-c2cnn(C)c2)n1` as the compound, how does the IC50 [3] read?
Its IC50 is 16 nM.

And the IC50 [2]?
The IC50 was 33 nM.

And the Kinetic_solubility [1]?
The Kinetic_solubility was “Soluble”.

What about the hepatic extraction ratio at 1 h, 1 µM [4] of the same compound?
Its hepatic extraction ratio at 1 h, 1 µM is under 0.3.

And the solubility thermodynamic at 24 h, 1 µM [5]?
Its solubility thermodynamic at 24 h, 1 µM is 4 µg/mL (≈ 10.2 µM).

For `CC(C)(C)NC(=O)Cn1cc(-c2nc(C3(c4ccc(-c5cnc(N)nc5)nc4)CCC3)no2)cn1`, which IC50 [2] is on record?
The IC50 was 195 nM.

What about the solubility kinetic [1] of the same compound?
Its solubility kinetic is 26 µg/mL (≈ 54.9 µM).

What does the source list for `CCn1cc(-c2nc(C3(c4ccc(-c5cnc(N)nc5)nc4)CCC3)no2)cn1`?
IC50 [2]: 192 nM; solubility kinetic [1]: > 38 µg/mL

Which IC50 [3] does the source give for `CC(C)[C@](C)(c1ccc(-c2cnc(N)nc2)nc1)c1noc(-c2cnn(CC(=O)N(C)C)c2)n1` here?
The IC50 was 54 nM.

And the IC50 [2]?
The IC50 was 197 nM.

What about the Kinetic_solubility [1] of the same compound?
The Kinetic_solubility was “Soluble”.

And the hepatic extraction ratio at 1 h, 1 µM [4]?
The hepatic extraction ratio at 1 h, 1 µM was under 0.3.

What about the solubility [5] of the same compound?
The solubility was “Soluble”.

Which IC50 [2] does the source give for `Cc1cc(-c2nc(C3(c4ccc(-c5cnc(N)nc5)cc4)CCC3)no2)[nH]n1` here?
Its IC50 is 80 nM.

And the solubility kinetic [1]?
The solubility kinetic was 3 µg/mL (≈ 8.03 µM).

For `CC(C)(C)NC(=O)Cn1cc(-c2nc(C3(c4ccc(-c5cnc(N)nc5)cc4)CCC3)no2)cn1`, which solubility kinetic [1] is on record?
Its solubility kinetic is 22 µg/mL (≈ 46.6 µM).

With `Cc1cc(-c2nc(C3(c4ccc(-c5cnc(N)nc5)nc4)CCC3)no2)[nH]n1` as the compound, how does the IC50 [2] read?
Its IC50 is 164 nM.

What about the solubility kinetic [1] of the same compound?
The solubility kinetic was over 37 µg/mL.

Which IC50 [3] does the source give for `CN(C)C(=O)Cn1cc(-c2nc([C@@](C)(c3ccc(-c4cnc(N)nc4)nc3)C3CC3)no2)cn1` here?
The IC50 was 2.9 nM.

And the IC50 [2]?
Its IC50 is 48 nM.

And the Kinetic_solubility [1]?
Its Kinetic_solubility is “Soluble”.

What about the hepatic extraction ratio at 1 h, 1 µM [4] of the same compound?
The hepatic extraction ratio at 1 h, 1 µM was 0.67.

And the solubility [5]?
Its solubility is “Soluble”.

With `CN(C(=O)Cn1cc(-c2nc(C3(c4ccc(-c5cnc(N)nc5)nc4)CCC3)no2)cn1)C(C)(C)C` as the compound, how does the IC50 [2] read?
Its IC50 is 262 nM.

What about the solubility kinetic [1] of the same compound?
Its solubility kinetic is 27 µg/mL (≈ 55.4 µM).

For `C[C@@](c1ccc(-c2cnc(N)nc2)nc1)(c1noc(-c2cnn(C3COC3)c2)n1)C1CC1`, which IC50 [3] is on record?
Its IC50 is 1.5 nM.

What about the IC50 [2] of the same compound?
The IC50 was 12 nM.

What about the Kinetic_solubility [1] of the same compound?
The Kinetic_solubility was “Soluble”.

And the hepatic extraction ratio at 1 h, 1 µM [4]?
Its hepatic extraction ratio at 1 h, 1 µM is 0.45.

And the solubility [5]?
Its solubility is “Soluble”.
